# Assay results taken from patent publication US8426438B2, “Heterocyclic-fused pyrazolo[4,3-c]pyridin-3-one M1 receptor positive allosteric modulators” (Merck Sharp & Dohme Corp., priority 2009, dated 2013).
# Target: T1, acetylcholine muscarinic M1 receptor (CHOnfat/hM1 cells) (Homo sapiens, UniProt P11229)
# T1 construct: expressed in transfected cells; host or cells: CHOnfat cells (CHO, Geneticin selection)
# T1 sequence (P11229 1-460): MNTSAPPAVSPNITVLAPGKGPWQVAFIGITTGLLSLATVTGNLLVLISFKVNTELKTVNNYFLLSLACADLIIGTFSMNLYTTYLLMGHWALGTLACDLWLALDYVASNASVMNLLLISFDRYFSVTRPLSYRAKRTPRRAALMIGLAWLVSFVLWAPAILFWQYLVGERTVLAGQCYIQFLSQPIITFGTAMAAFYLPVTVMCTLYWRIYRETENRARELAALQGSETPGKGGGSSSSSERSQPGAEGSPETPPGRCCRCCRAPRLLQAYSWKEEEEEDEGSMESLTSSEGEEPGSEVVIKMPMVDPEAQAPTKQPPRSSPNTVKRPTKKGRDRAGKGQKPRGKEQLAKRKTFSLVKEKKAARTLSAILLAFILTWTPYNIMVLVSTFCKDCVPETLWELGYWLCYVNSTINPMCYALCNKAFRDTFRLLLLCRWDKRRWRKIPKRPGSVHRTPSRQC
# Experiment: muscarinic FLIPR intracellular calcium assay for M1 positive allosteric modulator activity (acetylcholine EC20)
# Format: cell-based
# Conditions: 4 min preincubation, then EC20 acetylcholine (3 nM final), read-out: IP Value (inflection point)
# Method: The assay studies the effect of one or several concentrations of test compounds on basal or acetylcholine-stimulated Ca^2+ levels using FLIPR.
# Compounds are prepared and subjected to a preincubation period of 4 min. Thereafter, a single EC20 concentration of acetylcholine is added to each well (3 nM final). The intracellular Ca^2+ level of each sample is measured and compared to an acetylcholine control to determine any modulatory activity.
# CHOnfat/hM1, hM2, hM3 or hM4 cells are plated 24 hr before the assay at a density of 18,000 cells/well (100 up in a 384 well plate. CHOnfat/hM1 and CHOnfat/hM3 Growth Medium: 90% DMEM (Hi Glucose); 10% HI FBS; 2 mM L-glutamine; 0.1 mM NEAA; Pen-Strep; and 1 mg/ml Geneticin, are added. For M2Gqi5CHOnfat and M4Gqi5CHOnfat cells, an additional 600 μg/ml hygrornycin is added.
# 384 well plate, 120 μL addition plate; 96-well Whatman 2 ml Uniplate Incubator, 37° C., 5% CO2; Skatron EMBLA-384 Plate Washer; Multimek Pipetting System; Genesis Freedom 200 System; Mosquito System; Temo Nanolitre Pipetting System; and FLIPR^384 Fluorometric Imaging Plate Reader System are used.
# Assay Buffer: Hanks Balanced Salt Solution, with 20 mM Hepes, 2.5 mM Probenecid (Sigma P-8761) first dissolved in 1 N NaOH, 1% Bovine Serum Albumin (Sigma A-9647). Dye Loading Buffer: Assay Buffer plus 1% Fetal Bovine Serum and Fluo-4AM/Pluronic Acid Mixture. 2 mM Fluo-4AM ester stock in DMSO (Molecular Probes F-14202) Concentration of 2 μM in buffer for a final concentration of 1 μM in Assay. 20% Pluronic Acid Solution stock, with concentration of 0.04% in Buffer, 0.02% in Assay.
# 65 μL of 2 mM Fluo-4AM are mixed with 130 μL of 20% Pluronic Acid. The resulting solution and 650 μL FBS is added to the assay buffer for a total volume of 65 mL. Positive Controls: 4-Br-A23187: 10 mM in DMSO; final concentration 10 μM. Acetylcholine: 10 mM in water, working stock at both 20 μM and 30 μM in assay buffer, final concentration of 10 μM. This is used to check the maximum stimulation of the CHOK1/hM1 cells. 20 μM (2×) acetylcholine is added in the preincubation part of the assay, and the 30 μM (3×) stock is added in the second part. (EC20) Acetylcholine: 10 mM in water, working stock of 9 nM (3×), and final concentration in assay is 3 nM. This is used after the preincubation with test compounds. Addition of the EC20 Acetylcholine to each well with a test compound will ascertain any modulator activity. 24 wells contain 3 nM Acetylcholine alone as a control.
# Compounds are titrated in 96-well plates (columns 2-11), 100% DMSO, started at a concentration of 15 mM (150× stock concentration), and 3-fold serial dilutions using Genesis Freedom200 System. Four 96-well plates are combined into a 384-well plate using Mosquito Nanolitre Pipetting System by transferring 1 μl of serial diluted compounds to each well, and 1 mM acetylcholine (100× stock concentration) were added as a control. Using Temo, 49 μl assay buffer is added to each well of the 384-well plate right before assay.
# In a 96-well Whatman 2 ml Uniplate, 9 nM Acetylcholine (3×) is pipetted into wells corresponding to the screening compounds, and into control wells. The 30 μM acetylcholine control (3×) is added into control wells, and the 3× agonist plate is transferred into a 384 well plate.
# Cells are washed three times with 100 μL of buffer, leaving […] of buffer in each well. Using Multimek, 30 μL of Dye Loading Buffer is added into each well and incubated at 37° C., 5% CO2 for up to one hr.
# After 60 min, the cells are washed three times with 100 μL of buffer, leaving 30 μL of buffer in each well. The cell plate, screening plate, and agonist addition plates are placed on the platform in the FLIPR and the door closed. A signal test to check background fluorescence and basal fluorescence signal is performed. Laser intensity is adjusted if necessary. […]
row,EC50 [nM],SMILES
1,1300,"O=c1c2cn(Cc3ccc(-n4cccn4)cc3)c3c(c-2nn1-c1ccccc1F)C(O)CCC3 (racemic) [Example 11, (±)-2-(2-Fluorophenyl)-9-hydroxy-5-{[4-(1H-pyrazol-1-yl)phenyl]methyl}-2,5,6,7,8,9-hexahydro-3H-pyrazolo[4,3-c]quinolin-3-one]"
2,160,"O=c1c2cn(Cc3ccc(-n4cccn4)cc3)c3cccnc3c-2nn1-c1ccccc1F [Example 1, 2-(2-Fluorophenyl)-5-{[4-(1H-pyrazol-1-yl)phenyl]methyl}-2,5-dihydro-3H-pyrazolo[4,3-c]-1,5-naphthyridin-3-one]"
3,318,"O=c1c2cn(Cc3ccc(-n4cccn4)cc3)c3ncccc3c-2nn1-c1ccccc1F [Example 2, 2-(2-Fluorophenyl)-5-{[4-(1H-pyrazol-1-yl)phenyl]methyl}-2,5-dihydro-3H-pyrazolo[4,3-c]-1,8-naphthyridin-3-one]"
4,7670,"O=c1c2cn(Cc3ccc(-n4cccn4)cc3)c3cnccc3c-2nn1-c1ccccc1F [Example 4, 2-(2-Fluorophenyl)-5-{[4-(1H-pyrazol-1-yl)phenyl]methyl}-2,5-dihydro-3H-pyrazolo[4,3-c]-1,7-naphthyridin-3-one]"
5,759,"Cc1ccccc1-n1nc2c3nccnc3n(Cc3ccc(-n4cccn4)cc3)cc-2c1=O [Example 6, 2-(2-Methylphenyl)-5-{[4-(1H-pyrazol-1-yl)phenyl]methyl}-2,5-dihydro-3H-pyrazolo[3′,4′:4,5]-pyrido[2,3-b]pyrazin-3-one]"
6,770,"O=c1c2cn(Cc3ccc(-n4cccn4)cc3)c3c(c-2nn1-c1ccccc1F)CCC3 [Example 8, 2-(2-Fluorophenyl)-5-{[4-(1H-pyrazol-1-yl)phenyl]methyl}-5,6,7,8-tetrahydrocyclopenta[b]pyrazolo[3,4-d]pyridine-3(2H)-one]"
7,360,"O=c1c2cn(Cc3ccc(-n4cccn4)cc3)c3c(c-2nn1-c1ccccc1F)CCCC3 [Example 9, 2-(2-Fluorophenyl)-5-{[4-(1H-pyrazol-1-yl)phenyl]methyl}-2,5,6,7,8,9-hexahydro-3H-pyrazolo[3,4-d]pyridine-3(2H)-one]"
8,20,"O=c1c2cn(Cc3ccc(-n4cccn4)cc3)c3ccsc3c-2nn1-c1ccccc1F [Example 12, 2-(2-Fluorophenyl)-5-{[4-(1H-pyrazol-1-yl)phenyl]methyl}-2,5-dihydro-3H-pyrazolo[4,3-d]thieno[3,2-b]pyridin-3-one]"
9,108,"Cc1ccccc1-n1nc2c3sccc3n(Cc3ccc(-n4cccn4)cc3)cc-2c1=O [Example 13, 2-(2-Methylphenyl)-5-{[4-(1H-pyrazol-1-yl)phenyl]methyl}-2,5-dihydro-3H-pyrazolo[3,4-d]thieno[3,2-b]pyridin-3-one]"
10,65,"O=c1c2cn(Cc3ccc(-n4cccn4)cc3)c3ccsc3c-2nn1-c1c(Cl)cncc1Cl [Example 15, 2-(3,5-Dichloropyridin-4-yl)-5-{[4-(1H-pyrazol-1-yl)phenyl]methyl}-2,5-dihydro-3H-pyrazolo[3,4-d]thieno[3,2-b]pyridin-3-one]"
